Patent US20210369684A1 (MOUNT TAM THERAPEUTICS, INC., priority 2018, published 2021)
pIC50: −log10 of the molar value. “And” between values parts separate entries of the source, which are not always exact repeats. Equal values may be shown once.

What was measured:
[1] = Whole blood concentrations after IP administration to mice (LC-MS/MS); assay type: in vivo, mouse
Protocol: Shown below are whole blood concentrations following administration of the compound of Formula II to mice. The compound of Formula II was administered to mice at 2 mg/kg or 10 mg/kg for three days and the concentration of the compound in whole blood determined. These determinations were made using protein precipitation, liquid chromatography (LC), and mass spectrometry (MS/MS). Ten μl aliquots of whole blood and matrix calibration standards were distributed in a 96-well plate; 10 μl aliquots of blank matrix for matrix blanks and control blanks were included as controls. Ten μl of water was added to each sample followed by vortexing. One hundred sixty […] of internal standard was added to each sample except the matrix blanks; 160 μl 70:30 water:acetonitrile (ACN) was added to matrix blanks. This was followed by a […]. One hundred fifty μl of the resultant supernatant was then transferred to a new 96-well plate and the samples blown to dryness at 35° C. The resultant product was then reconstituted with 90 μl ACN.

6-OHDA injected mice = assay: Anti-TH immunohistochemistry, 6-OHDA-induced neuronal loss (TH-positive somas in SN); assay type: in vivo, mouse
Protocol: Immunohistochemistry analysis using anti-tyrosine hydroxylase (TH) antibody was also performed to quantify 6-OHDA-induced neuronal loss in mice injected with 6-OHDA and non-injected (control) sides of the brain. […] FIG. 4B presents the mean and standard error of the mean (SEM) as well as statistical analysis of the results.

Oral bioavailability = details: in vivo
Description: In order to measure bioavailability in vivo, a compound may be administered to a test animal (e.g. mouse or rat) both intraperitoneally (i.p.) or intravenously (i.v.) and orally (p.o.) and blood samples are taken at regular intervals to examine how the plasma concentration of the drug varies over time. The time course of plasma concentration over time can be used to calculate the absolute bioavailability of the compound as a percentage using standard models. An example of a typical protocol is described below. […] The time-course of plasma or whole blood concentrations can then be used to derive key parameters such as the area under the plasma or blood concentration-time curve (AUC-which is directly proportional to the total amount of unchanged drug that reaches the systemic circulation), the maximum (peak) plasma or blood drug concentration, the time at which maximum plasma or blood drug concentration occurs (peak time), additional factors which are used in the accurate determination of bioavailability include: the compound's terminal half-life, total body clearance, steady-state volume of distribution and F %. These parameters are then analyzed by non-compartmental or compartmental methods to give a calculated percentage bioavailability, for an example of this type of method see Gallant-[…] et al, 2000 and […] et al, 1998, and references therein.

TORC2 = target: T1, TORC2 (Homo sapiens, UniProt P42345+P62942); assay: IC50 in PC3 cells, TORC2; assay type: cell-based
T1 construct: endogenous in cells; host or cells: PC3 cells

CO[C@H]1C[C@@H]2CC[C@@H](C)[C@@](O)(C2)C(=O)C(=O)N2CCCC[C@H]2C(=O)O[C@H]([C@H](C)C[C@H]2C[C@H]3C[C@@H]2C[C@@H]3O)CC(=O)[C@H](C)/C=C(\C)[C@@H](O)[C@@H](OC)C(=O)[C@H](C)C[C@H](C)/C=C/C=C/C=C/1C [Formula II, C37-[(1R,2S,4R,5S)-5-hyhroxybicyclo[2.2.1]heptane] rapamycin]
Formula II Concentrations in Mouse Whole Blood ([1]; 2 mg/kg IP QD x 3 days, Day 3, 24.0 h, individual animals 7, 8, 9): 17.6 ng/mL and 59.6 ng/mL and 48.6 ng/mL
Formula II Concentrations in Mouse Whole Blood, Mean ([1]; 2 mg/kg IP QD x 3 days, Day 3, 24.0 h, mean): 41.9 ng/mL
concentrations in whole blood over time (in words) ([1]; 2 mg/kg or 10 mg/kg IP QD for three days, mice): sufficient concentrations in whole blood over time
Formula II Concentrations in Mouse Whole Blood ([1]; 10 mg/kg IP QD x 3 days, Day 1, 1.00 h, individual animals 10, 11, 12): 560 ng/mL and 641 ng/mL and 769 ng/mL
Formula II Concentrations in Mouse Whole Blood, Mean ([1]; 10 mg/kg IP QD x 3 days, Day 1, 1.00 h, mean): 657 ng/mL
Formula II Concentrations in Mouse Whole Blood ([1]; 10 mg/kg IP QD x 3 days, Day 1, 2.00 h, individual animals 10, 11, 12): 793 ng/mL
Formula II Concentrations in Mouse Whole Blood ([1]; 10 mg/kg IP QD x 3 days, Day 1, 6.00 h, individual animals 10, 11, 12): 1000 ng/mL and 1950 ng/mL and 544 ng/mL
Formula II Concentrations in Mouse Whole Blood, Mean ([1]; 10 mg/kg IP QD x 3 days, Day 1, 6.00 h, mean): 1165 ng/mL
Formula II Concentrations in Mouse Whole Blood ([1]; 10 mg/kg IP QD x 3 days, Day 1, 24.0 h, individual animals 10, 11, 12): 222 ng/mL and 181 ng/mL and 210 ng/mL
Formula II Concentrations in Mouse Whole Blood, Mean ([1]; 10 mg/kg IP QD x 3 days, Day 1, 24.0 h, mean): 204 ng/mL
Formula II Concentrations in Mouse Whole Blood ([1]; 10 mg/kg IP QD x 3 days, Day 2, 1.00 h, individual animals 10, 11, 12): 3410 ng/mL and 2970 ng/mL and 546 ng/mL
Formula II Concentrations in Mouse Whole Blood, Mean ([1]; 10 mg/kg IP QD x 3 days, Day 2, 1.00 h, mean): 2309 ng/mL
Formula II Concentrations in Mouse Whole Blood ([1]; 10 mg/kg IP QD x 3 days, Day 2, 2.00 h, individual animals 10, 11, 12): 3670 ng/mL and 3930 ng/mL and 2370 ng/mL
Formula II Concentrations in Mouse Whole Blood, Mean ([1]; 10 mg/kg IP QD x 3 days, Day 2, 2.00 h, mean): 3323 ng/mL
Formula II Concentrations in Mouse Whole Blood ([1]; 10 mg/kg IP QD x 3 days, Day 2, 6.00 h, individual animals 10, 11, 12): 2770 ng/mL and 3390 ng/mL and 609 ng/mL
Formula II Concentrations in Mouse Whole Blood, Mean ([1]; 10 mg/kg IP QD x 3 days, Day 2, 6.00 h, mean): 2256 ng/mL
Formula II Concentrations in Mouse Whole Blood ([1]; 10 mg/kg IP QD x 3 days, Day 2, 24.0 h, individual animals 10, 11, 12): 123 ng/mL and 336 ng/mL and 78.0 ng/mL
Formula II Concentrations in Mouse Whole Blood, Mean ([1]; 10 mg/kg IP QD x 3 days, Day 2, 24.0 h, mean): 179 ng/mL
Formula II Concentrations in Mouse Whole Blood ([1]; 10 mg/kg IP QD x 3 days, Day 3, 1.00 h, individual animals 10, 11, 12): AQL and 3420 ng/mL and 987 ng/mL
Formula II Concentrations in Mouse Whole Blood, Mean ([1]; 10 mg/kg IP QD x 3 days, Day 3, 1.00 h, mean (animal 10 AQL)): 2204 ng/mL
Formula II Concentrations in Mouse Whole Blood ([1]; 10 mg/kg IP QD x 3 days, Day 3, 2.00 h, individual animals 10, 11, 12): 5170 ng/mL and 3650 ng/mL and 777 ng/mL
Formula II Concentrations in Mouse Whole Blood, Mean ([1]; 10 mg/kg IP QD x 3 days, Day 3, 2.00 h, mean): 3199 ng/mL
Formula II Concentrations in Mouse Whole Blood ([1]; 10 mg/kg IP QD x 3 days, Day 3, 6.00 h, individual animals 10, 11, 12): 3330 ng/mL and 2890 ng/mL and 730 ng/mL
Formula II Concentrations in Mouse Whole Blood, Mean ([1]; 10 mg/kg IP QD x 3 days, Day 3, 6.00 h, mean): 2317 ng/mL
Formula II Concentrations in Mouse Whole Blood ([1]; 10 mg/kg IP QD x 3 days, Day 3, 24.0 h, individual animals 10, 11, 12): 223 ng/mL and 323 ng/mL and 124 ng/mL
Formula II Concentrations in Mouse Whole Blood, Mean ([1]; 10 mg/kg IP QD x 3 days, Day 3, 24.0 h, mean): 223 ng/mL
6-OHDA-induced neuronal loss (TH-positive somas, SN) compared with vehicle control (6-OHDA injected mice; 6-OHDA injected mice, FIG. 4A): decreased 6-OHDA-induced neuronal loss as compared to vehicle control
TH+ neuronal loss, p versus vehicle control (6-OHDA injected mice; one-way ANOVA, FIG. 4B): < 0.01
bioavailability (Oral bioavailability): ~47%
pIC50 (TORC2): 8.30
